According to patent US6815546B2, “Analogues of camptothecin, their use as medicaments and the pharmaceutical compositions containing them” (Societe de Recherches et d'Applications Scientifiques …, priority 1995, dated 2004):

How the values were obtained:
Format in all cases: cell-based
[1] = tested on: U373 (human glioblastoma); assay: Test on cell proliferation (MTT test), U373; conditions: 72 hours
Protocol: (§1) a. Eight tumoral cell lines are used in this study: L1210 (mouse lymphocytic leukemia), HCT15 and LOVO (cell lines of human colon adenocarcinoma), A549 (human lung carcinoma), A172, U373 et U87 (human glioblastoma). All these lines are obtained from the American Type Culture Collection (ATCC), Rockville, Md. The L1210 cell cultures in suspension are cultured in Dulbecco's modified Eagle's medium (DMEM) (BioWhitaker, Verviers, Belgium) together with 10% of foetal calf serum inactivated by heating, 2 mM of glutamine, 50 μg/ml of penicillin and 50 μg/ml of streptomycin. The HT29 cells are cultured in mono-layer cultures in a McCoy 5a medium (Gibco, Paisley, United Kingdom) together with 10% of foetal calf serum inactivated by heat plus 2 mM of glutamine and 50 μg/ml of gentamycin. The other cells are cultured in an Earle's modified essential medium (EMEM; Gibco, Paisley, United Kingdom) together with 5% foetal calf serum inactivated by heat, 2 mM of glutamine, 50 U/ml of penicillin and 50 μg/ml of streptomycin. All the cell lines are cultured at 37° C. in a humidified atmosphere containing 95% air and 5% CO2.
(§2) Inhibition of the tumor cell line proliferation is determined using an MTT test. 1500 L1210 cells in a culture medium (according to the needs of the cell medium) are seeded in a well of a micro-well plate (tissue culture level: 96 wells, flat bottom) 24 hours before treatment with the compounds to be tested. For these dose-response studies, the cells are incubated with each of the compounds to be tested or their corresponding solvent (controls) for 48 hours over a final concentration range of 1.10^−10 to 1.10^−4 M. All the compounds are dissolved just before use in dimethylsulphoxide (DMSO) at a concentration of 50 mM. Other dilutions of the medicaments are carried out in the culture medium. The final concentration of DMSO never exceeds 0.2% (v/v). As controls, the solutions of medicaments are replaced with the solvent which is diluted successively in the same way as the compounds to be tested.
(§3) After the incubation period, the labeling reagent MTT (3-[4,5-dimethylthiazol-2-yl]-2,5-diphenyltetrazolium bromide; Thiazol blue, Sigma M 565, Sigma, St Louis, Mo.) is added at a final concentration of 0.3 mg/ml to each well. The cells are incubated for 4 hours at 37° C. in a humidified atmosphere. This stage allows the mitochondrial dehydrogenase of the living cells to convert the yellow tetrazolium salt MTT into crimson formazan crystals. The supernatant part is eliminated and the formazan crystals formed are solubilized with DMSO. The resultant coloured solution is quantified by absorbance at 570 nm by using a multi-cuvette scanning spectrophotometer. The data concerning the proliferation is expressed as a percentage of living cells in the treated wells, divided by the living cells in the controls. Each point represents the average of three independent experiments, each experiment represents six determinations.
(§4) For the other cell lines (HCT15, LOVO, A549, A172, U373, U87), 1000 to 2000 cells are seeded in the well of a micro-well plate 24 hours before medicinal treatment. […]
(§5) The results are expressed as percentages of the calculated proliferation by the optical density (OD) of the cells treated with a medicament divided by the OD of the control cells (cells treated with DMSO). As represented in Table II, the compounds to be tested have inhibited the proliferation of cells in a dose-dependent manner.

[2] = tested on: L1210 (mouse lymphocytic leukemia); assay: Test on cell proliferation (MTT test), L1210; conditions: 48 hours
Protocol: as §1, §2, §3, §5

U87 (human glioblastoma) = assay: Test on cell proliferation (MTT test), U87; conditions: 72 hours
Protocol: as §1, §2, §3, §4, §5

[3] = tested on: A172 (human glioblastoma); assay: Test on cell proliferation (MTT test), A172; conditions: 72 hours
Protocol: as §1, §2, §3, §4, §5

[4] = tested on: LOVO (cell lines of human colon adenocarcinoma); assay: Test on cell proliferation (MTT test), LOVO; conditions: 72 hours
Protocol: as §1, §2, §3, §4, §5

[5] = tested on: HCT15 (cell lines of human colon adenocarcinoma); assay: Test on cell proliferation (MTT test), HCT15; conditions: 72 hours
Protocol: as §1, §2, §3, §4, §5

[6] = tested on: A549 (human lung carcinoma); assay: Test on cell proliferation (MTT test), A549; conditions: 72 hours
Protocol: as §1, §2, §3, §4, §5

Q: `CCC1(O)CC(=O)OCc2c1cc1n(c2=O)Cc2cc3cc4c(cc3nc2-1)OCCO4` (stereo not shown) [Example 11, 8-ethyl-8-hydroxy-2,3,8,9,12,15-hexahydro-10H,13H-[1,4]dioxino [2,3-g]oxepino[3′,4′:6,7]indolizino[1,2-b]quinoline-10,13-dione] was tested. Which “PERCENTAGE OF CELL PROLIFERATION” value ([1]; 0.1 nM) did it give?
A: Its value is 50.00%.

Q: What about the “PERCENTAGE OF CELL PROLIFERATION” value ([1]; 1 nM) of the same molecule?
A: Its value is 30.00%.

Q: And the “PERCENTAGE OF CELL PROLIFERATION” value ([1]; 10 nM)?
A: The value was 25.00%.

Q: What about the “PERCENTAGE OF CELL PROLIFERATION” value ([1]; 100 nM) of the same molecule?
A: Its value is 8.00%.

Q: What about the “PERCENTAGE OF CELL PROLIFERATION” value ([1]; 1 000 nM) of the same molecule?
A: Its value is 2.00%.

Q: And the “PERCENTAGE OF CELL PROLIFERATION” value ([1]; 10 000 nM)?
A: The value was 1.00%.

Q: And the “PERCENTAGE OF CELL PROLIFERATION” value ([1]; 100 000 nM)?
A: The value was 2.00%.

Q: And the “PERCENTAGE OF CELL PROLIFERATION” value ([2]; 0.1 nM)?
A: The value was 91.99%.

Q: And the “PERCENTAGE OF CELL PROLIFERATION” value ([2]; 1 nM)?
A: Its value is 81.37%.

Q: And the “PERCENTAGE OF CELL PROLIFERATION” value ([2]; 10 nM)?
A: The value was 23.16%.

Q: What about the “PERCENTAGE OF CELL PROLIFERATION” value ([2]; 100 nM) of the same molecule?
A: The value was 16.83%.

Q: And the “PERCENTAGE OF CELL PROLIFERATION” value ([2]; 1 000 nM)?
A: The value was 5.59%.

Q: And the “PERCENTAGE OF CELL PROLIFERATION” value ([2]; 10 000 nM)?
A: Its value is 1.45%.

Q: What about the “PERCENTAGE OF CELL PROLIFERATION” value ([2]; 100 000 nM) of the same molecule?
A: The value was 1.04%.

Q: What about the “PERCENTAGE OF CELL PROLIFERATION” value (U87 (human glioblastoma); 0.1 nM) of the same molecule?
A: Its value is 40.00%.

Q: And the “PERCENTAGE OF CELL PROLIFERATION” value (U87 (human glioblastoma); 1 nM)?
A: Its value is 21.00%.

Q: What about the “PERCENTAGE OF CELL PROLIFERATION” value (U87 (human glioblastoma); 10 nM) of the same molecule?
A: The value was 12.00%.

Q: What about the “PERCENTAGE OF CELL PROLIFERATION” value (U87 (human glioblastoma); 100 nM) of the same molecule?
A: Its value is 6.00%.

Q: And the “PERCENTAGE OF CELL PROLIFERATION” value (U87 (human glioblastoma); 1 000 nM)?
A: The value was 1.00%.

Q: And the “PERCENTAGE OF CELL PROLIFERATION” value (U87 (human glioblastoma); 10 000 nM)?
A: The value was 1.00%.

Q: What about the “PERCENTAGE OF CELL PROLIFERATION” value (U87 (human glioblastoma); 100 000 nM) of the same molecule?
A: The value was 1.00%.

Q: What about the “PERCENTAGE OF CELL PROLIFERATION” value ([3]; 0.1 nM) of the same molecule?
A: The value was 95.00%.

Q: What about the “PERCENTAGE OF CELL PROLIFERATION” value ([3]; 1 nM) of the same molecule?
A: The value was 53.00%.

Q: What about the “PERCENTAGE OF CELL PROLIFERATION” value ([3]; 10 nM) of the same molecule?
A: The value was 47.00%.

Q: And the “PERCENTAGE OF CELL PROLIFERATION” value ([3]; 100 nM)?
A: Its value is 39.00%.

Q: What about the “PERCENTAGE OF CELL PROLIFERATION” value ([3]; 1 000 nM) of the same molecule?
A: The value was 12.00%.

Q: What about the “PERCENTAGE OF CELL PROLIFERATION” value ([3]; 10 000 nM) of the same molecule?
A: Its value is 3.00%.

Q: What about the “PERCENTAGE OF CELL PROLIFERATION” value ([3]; 100 000 nM) of the same molecule?
A: Its value is 2.00%.

Q: What about the “PERCENTAGE OF CELL PROLIFERATION” value ([4]; 0.1 nM) of the same molecule?
A: Its value is 66.00%.

Q: And the “PERCENTAGE OF CELL PROLIFERATION” value ([4]; 1 nM)?
A: The value was 42.00%.

Q: And the “PERCENTAGE OF CELL PROLIFERATION” value ([4]; 10 nM)?
A: Its value is 29.00%.

Q: What about the “PERCENTAGE OF CELL PROLIFERATION” value ([4]; 100 nM) of the same molecule?
A: The value was 21.00%.

Q: What about the “PERCENTAGE OF CELL PROLIFERATION” value ([4]; 1 000 nM) of the same molecule?
A: The value was 8.00%.

Q: What about the “PERCENTAGE OF CELL PROLIFERATION” value ([4]; 10 000 nM) of the same molecule?
A: The value was 3.00%.

Q: What about the “PERCENTAGE OF CELL PROLIFERATION” value ([4]; 100 000 nM) of the same molecule?
A: The value was 3.00%.

Q: What about the “PERCENTAGE OF CELL PROLIFERATION” value ([5]; 0.1 nM) of the same molecule?
A: Its value is 71.00%.

Q: And the “PERCENTAGE OF CELL PROLIFERATION” value ([5]; 1 nM)?
A: The value was 63.00%.

Q: What about the “PERCENTAGE OF CELL PROLIFERATION” value ([5]; 10 nM) of the same molecule?
A: The value was 45.00%.

Q: And the “PERCENTAGE OF CELL PROLIFERATION” value ([5]; 100 nM)?
A: Its value is 23.00%.

Q: And the “PERCENTAGE OF CELL PROLIFERATION” value ([5]; 1 000 nM)?
A: The value was 12.00%.

Q: What about the “PERCENTAGE OF CELL PROLIFERATION” value ([5]; 10 000 nM) of the same molecule?
A: The value was 9.00%.

Q: And the “PERCENTAGE OF CELL PROLIFERATION” value ([5]; 100 000 nM)?
A: The value was 9.00%.

Q: What about the “PERCENTAGE OF CELL PROLIFERATION” value ([6]; 0.1 nM) of the same molecule?
A: Its value is 82.00%.

Q: And the “PERCENTAGE OF CELL PROLIFERATION” value ([6]; 1 nM)?
A: The value was 44.00%.

Q: And the “PERCENTAGE OF CELL PROLIFERATION” value ([6]; 10 nM)?
A: Its value is 29.00%.

Q: And the “PERCENTAGE OF CELL PROLIFERATION” value ([6]; 100 nM)?
A: Its value is 26.00%.

Q: And the “PERCENTAGE OF CELL PROLIFERATION” value ([6]; 1 000 nM)?
A: Its value is 4.00%.

Q: And the “PERCENTAGE OF CELL PROLIFERATION” value ([6]; 10 000 nM)?
A: Its value is 3.00%.

Q: What about the “PERCENTAGE OF CELL PROLIFERATION” value ([6]; 100 000 nM) of the same molecule?
A: Its value is 2.00%.
